Literature values in patent US20040071685A1, “Compositions and methods for increasing the bioavailability of plant polyphenols” (priority 2002, published 2004).

Legend:
[1] = rats, oral, 700 μM/kg body weight
[2] = adults
[3] = system: alpha-glucosidase (invertase)
[4] = rats, 15 μM administered in the stomach in situ, after 30 minutes

SMILES | volume of distribution [2] | amount remaining in the stomach [4] [µM] | also measured
O=C(O)/C=C/c1ccc(O)c(O)c1 [caffeic acid] |  |  | maximum serum level of conjugates [1]: 0.64 µM; time of maximum serum levels [1]: 2 h
O=c1c(-c2ccc(O)cc2)coc2cc(O)ccc12 [daidzein] | large |  | 
O=c1c(-c2ccc(O)cc2)coc2cc(O)cc(O)c12 [genistein] | large |  | type of inhibition [3]: reversible, slow-binding, non-competitive inhibitor
O=c1c(O[C@@H]2O[C@H](CO)[C@@H](O)[C@H](O)[C@H]2O)c(-c2ccc(O)c(O)c2)oc2cc(O)cc(O)c12 [isoquercitrin] |  | 15 | 
O=c1c(O)c(-c2ccc(O)c(O)c2)oc2cc(O)cc(O)c12 [quercetin] |  | 8.6 | amount found in the bile samples [4]: 4.1 µM
C[C@@H]1O[C@@H](OC[C@H]2O[C@@H](Oc3c(-c4ccc(O)c(O)c4)oc4cc(O)cc(O)c4c3=O)[C@H](O)[C@@H](O)[C@@H]2O)[C@H](O)[C@H](O)[C@H]1O [rutin] |  | 15 | 
